According to patent US8580941B2, “Epididymal lipocalin gene and uses thereof” (Vanderbilt University, priority 2000, dated 2013):

System: mEP17 protein
Test: Regulation of mEP17 protein expression (Western blotting and immunohistochemistry) in treated mice
Type: in vivo, mouse
Source text: The regulation of mEP17 protein expression was investigated using Western blotting and immunohistochemistry in castrated mice, castrated testosterone supplemented mice, unilateral castrated mice, unilateral cryptorchid mice, and busulphan-treated mice. As previously observed at the mRNA level (FIGS. 15A-15C), mEP17 protein disappeared from the initial segment two days after bilateral castration and was not restored by testosterone treatment. Similarly, after unilateral castration, mEP17 protein disappeared from the castrated side, but not from the non-castrated side.
To determine whether germ cell-associated testicular factors can regulate mEP17, spermatogenesis was disrupted using cryptorchidism or busulphan treatment. One month following cryptorchidism, mEP17 protein was not detected in the initial segment of the cryptorchid epididymis but was detected at normal levels in the scrotal epididymis. In cryptorchidism, the testis and the epididymis are exposed to abdominal temperature. To distinguish the effects of abdominal temperature on the testis or epididymis, spermatogenesis was also disrupted by busulphan treatment.

Compound	level of mEP17 protein compared to untreated controls (busulphan-treated mice, following a 35-day treatment (disruption of spermatogenesis))	mEP17 protein in the initial segment of the epididymis after testosterone treatment (castrated testosterone supplemented mice, protein disappeared two days after bilateral castration)
CS(=O)(=O)OCCCCOS(C)(=O)=O [busulphan]	drastically reduced	–
C[C@]12CC[C@H]3[C@@H](CCC4=CC(=O)CC[C@@]43C)[C@@H]1CC[C@@H]2O [testosterone]	–	not restored
